The target of assay [1] is T1, Cholecystokinin receptor type A (Homo sapiens, UniProt P32238).
T1 sequence (P32238 whole entry): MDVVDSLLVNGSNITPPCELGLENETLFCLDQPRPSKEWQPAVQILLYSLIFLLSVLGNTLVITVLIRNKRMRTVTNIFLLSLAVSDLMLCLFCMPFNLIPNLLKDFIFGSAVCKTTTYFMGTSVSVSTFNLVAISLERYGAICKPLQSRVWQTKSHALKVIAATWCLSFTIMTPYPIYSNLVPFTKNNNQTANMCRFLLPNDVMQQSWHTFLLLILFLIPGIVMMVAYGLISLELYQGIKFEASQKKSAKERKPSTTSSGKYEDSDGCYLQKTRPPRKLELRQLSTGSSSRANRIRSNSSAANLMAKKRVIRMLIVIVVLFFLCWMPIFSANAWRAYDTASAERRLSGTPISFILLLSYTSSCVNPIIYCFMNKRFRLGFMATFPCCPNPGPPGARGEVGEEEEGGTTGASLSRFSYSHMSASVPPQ
The experiment in a line: Tested for the 50% displacement of [125I]CCK-8 from membrane preparation isolated from CHO-K1 cells stably transfected with the cDNA of human Cholecystokinin type A receptor. In kind it is cell membranes. Background: Displacement assays read how much labelled ligand stays bound in the presence of the test substance.

For assay [2], the target named is T2, Gastrin/cholecystokinin type B receptor (Homo sapiens, UniProt P32239).
T2 sequence (P32239 whole entry): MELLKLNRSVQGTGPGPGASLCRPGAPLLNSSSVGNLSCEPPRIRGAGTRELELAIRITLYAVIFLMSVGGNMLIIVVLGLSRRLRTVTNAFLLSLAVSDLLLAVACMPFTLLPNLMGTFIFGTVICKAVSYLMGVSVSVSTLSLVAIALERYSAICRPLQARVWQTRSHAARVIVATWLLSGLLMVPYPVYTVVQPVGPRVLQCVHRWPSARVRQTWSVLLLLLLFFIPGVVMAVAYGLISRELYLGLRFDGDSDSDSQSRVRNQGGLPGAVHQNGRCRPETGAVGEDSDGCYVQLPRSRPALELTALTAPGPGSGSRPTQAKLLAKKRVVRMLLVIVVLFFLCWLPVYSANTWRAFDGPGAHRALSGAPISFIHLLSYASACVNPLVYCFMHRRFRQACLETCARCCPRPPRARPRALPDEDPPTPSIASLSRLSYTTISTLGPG
The experiment in a line: Tested for 50% displacement of [125I]CCK-8 from membrane preparation isolated from CHO-K1 cells stably transfected with the cDNA of human Cholecystokinin type B receptor. In kind it is cell membranes.

The subject of a further assay is Mus musculus. The experiment in a line: Tested in vivo for the relative efficacy (relative to CCK-8 (1 nmol/kg)) for mouse gallbladder emptying after ip administration (0.1 umol/kg). In kind it is functional.
Assay [3] has as its target Cholecystokinin receptor type A (Cavia porcellus). Put plainly: Concentration of compound that induced 50% of the maximal contraction in guinea pig gallbladder tissue when tested in vitro.

Some results are limits rather than exact numbers.

The term IC50 denotes the concentration needed to halve the response being measured. High values mean lower potency, low ones higher potency. By EC50 is commonly meant the concentration needed to bring the measured effect to its halfway point. A lower EC50 goes with a more potent agent.

For `COc1ccc(N(C(=O)CN(C(=O)[C@@H](CCC(=O)O)NC(=O)Nc2ccccc2)c2ccccc2)C(C)C)cc1`, the half-inhibitory concentration (IC50) in assay [1] was 0.251 µM; in assay [2], 31.6 µM. This compound displayed a Relative efficacy in the assay on Mus musculus of 0.8. The same compound displayed a half-maximal effective concentration (EC50) in assay [3] of 0.11 µM.

On to `CC(C)N(C(=O)CN(C(=O)[C@@H](CCC(=O)O)NC(=O)Nc1ccccc1)c1ccccc1)c1ccccc1`, for which the IC50 is 1.58 µM in assay [1] and 10 µM in assay [2]. Further, the Relative efficacy in the assay on Mus musculus was 0.6. The concentration giving a half-maximal response (EC50) in assay [3] was 0.21 µM.

Regarding `CCCCCN(CC(=O)N(c1ccccc1)C(C)C)C(=O)[C@@H](CCC(=O)O)NC(=O)Nc1ccccc1`, the Relative efficacy with Mus musculus was found to be 0.3.

On to `COc1ccc(N(C(=O)CN(C(=O)[C@H](CCC(=O)O)NC(=O)Nc2ccccc2)c2ccccc2)C(C)C)cc1`, for which the EC50 in assay [3] was 5.6 µM.

`CC(C)N(C(=O)CN(C(=O)CNC(=O)Nc1ccccc1)c1ccccc1)c1ccccc1`: the IC50 was 3.16 µM in assay [1] and 1.58 µM in assay [2]. This compound displayed a Relative efficacy in the assay on Mus musculus below 0.2. Also, the EC50 in assay [3] was found to be 0.3 µM.
